From patent US9981005B2, “Methods for increasing DISC1 in a subject with schizophrenia or bipolar disorder by an antagonist inhibiting DISC1 binding to FBXW7” (The University Court of the University of Glasgow, priority 2013, dated 2018)
Entries after “also recorded” stand apart in the source; their conditions may differ. Where a SMILES comes first, the peptide text is derived from it. Where no end group is shown, it is not given here. [ ]: non-standard residue; d: D form. The star is where a group is joined. pT = C[C@@H](OP(=O)(O)O)[C@H](N)C(=O)O; NMeE = CN[C@@H](CCC(=O)O)C(=O)O; pS = N[C@@H](COP(=O)(O)O)C(=O)O; NMeD = CN[C@@H](CC(=O)O)C(=O)O; Cbz = O=C(OCc1ccccc1)*

Assays:
[1] = tested on: DISC1 levels in HEK293 cells; experiment: MG132 treatment of HEK293 cells, Western blot for DISC1; assay type: cell-based, human; details: MG132 at various concentrations for 3 hours, FIG. 1
Method: The proteasome inhibitor MG132 (N-carbobenzoxyl-Leu-Leu-Leucinal) (Sigma) was dissolved in DMSO to make a stock of 10 mM and stored at −20° C. HEK293 cells were treated with MG132 at various concentrations for 3 hours. The cells were then lysed in 3T3 lysis buffer (20 mM Hepes (pH 7.4), 50 mM NaCl, 50 mM NaF, 10% (v/v) glycerol, 1% (w/v) Triton X-100, 10 mM EGTA, 30 mM sodium pyrophosphate supplemented with protease and phosphatase inhibitor cocktail (Roche)). Proteins were quantified and normalised for protein concentration followed by Western blot analysis for DISC1 and GAPDH.
(§1) Lysates were boiled in Laemmli buffer for 2 minutes prior to SDS-PAGE. Lysates were loaded on to a precast 4-12% bis-tris gel (˜10 μg/well). Gels were resolved at 150V (constant) for 90 mins. Proteins were transferred to nitrocellulose membrane at 30V for 1 hour. Membranes were blocked in 5% Milk in 1×TBS-tween20 for 1 hour at room temperature. Primary antibodies were diluted in 1% milk in 1×TBS-tween20 and incubated overnight at 4° C. […] Protein bands were visulised using the Licor Odyssey scanner and analysed using Odyssey software (version 1.2). DISC-1 protein levels were analysed by densitometry and normalised against those of the loading control (GAPDH).

Skp1-FBXW7 = target: T1, Skp1-FBXW7 (Homo sapiens, UniProt Q969H0); experiment: Isothermal titration calorimetry (ITC); assay type: binding; details: ITC at 25° C.
T1 construct: human FBXW7 (residues 263-707); His6 (N, cleaved yes); made in house; host or cells: Escherichia coli
T1 sequence (Q969H0 263-707): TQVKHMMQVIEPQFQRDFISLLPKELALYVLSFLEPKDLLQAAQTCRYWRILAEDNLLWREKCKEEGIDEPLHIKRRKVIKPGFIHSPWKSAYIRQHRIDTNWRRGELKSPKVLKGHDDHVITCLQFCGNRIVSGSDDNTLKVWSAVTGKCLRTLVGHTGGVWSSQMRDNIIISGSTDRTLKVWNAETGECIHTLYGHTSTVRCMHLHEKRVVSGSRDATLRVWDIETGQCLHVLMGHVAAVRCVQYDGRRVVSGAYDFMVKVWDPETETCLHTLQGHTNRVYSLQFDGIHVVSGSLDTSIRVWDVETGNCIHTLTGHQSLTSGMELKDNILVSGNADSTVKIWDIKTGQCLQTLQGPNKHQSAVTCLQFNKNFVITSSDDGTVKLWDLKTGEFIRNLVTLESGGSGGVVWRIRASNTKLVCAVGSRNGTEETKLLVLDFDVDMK
Method: Affinity of DISC1 analogue peptides (or other binding inhibitors) for FBXW7 may be determined using ITC.
Protein samples are typically dialysed against a solution containing 20 mM HEPES-Na (pH 7.4), 200 mM NaCl, and 2 mM β-mercaptoethanol before combining. Typically, the concentrations of Skp1-FBXW7 and DISC1 peptides used in the assay are 50 μM and 1 mM, respectively.
Titration is performed at 25° C. with a NANO ITC System (TA Instruments, New Castle, Del.) and data analysed using the TA Nano Analyze software. Dissociation constants and their standard deviations are typically derived from two to three independent measurements.

[2] = tested on: DISC1 expression in HEK293 cells; experiment: DISC1 expression in HEK293 cells treated with cell-permeable peptides, quantitative Western blotting; assay type: cell-based, human; details: for DISC1 up-regulation, time course: cell-permeable (N-terminal stearate) peptides at 100 μM, 0, 1, 2, 3 and 6 hours, FIG. 9
Method: Peptides modified at the N-terminal amino group with stearate moieties to render them cell permeable (Severn Biotech Ltd) were dissolved in sterile DMSO at a stock concentration of 100 mM.
HEK293 cells were seeded into 6 well plates and cultured until 70-80% confluent. Cell permeable peptides 139 and 142 were added at 100 μM. Cells were incubated at 37° C./5% C02. Cells were taken at 0, 1, 2, 3 and 6 hours post peptide addition. After treatment cells were washed briefly with ice cold PBS and lysed on ice using 3T3 lysis buffer (20 mM Hepes (pH 7.4), 50 mM NaCl, 50 mM NaF, 10% (v/v) glycerol, 1% (w/v) Triton X-100, 10 mM EGTA, 30 mM sodium pyrophosphate) containing protease and phosphatase inhibitors. Protein concentrations were assessed using Bradford assay. Cell lysates were separated by SDS-PAGE and levels of DISC1 expression determined by quantitative Western blotting using the Licor Odyssey imaging system. GAPDH was used as a control to confirm equal loading.
In a similar experiment, HEK293 were seeded into 6 well plates and cultured until 70-80% confluent. Cell-permeable peptides 139 and 142 were added over a concentration range: 10 μM, 30 μM, 50 μM, 100 μM in duplicate. Cells were incubated at 37° C./5% C02 for 3 hours. […] After treatment cells were washed briefly with ice cold PBS and lysed on ice as described above.
as §1

[3] = tested on: FBXW7 substrates Notch-1, c-Myc, c-Jun and cyclinE; experiment: Expression levels of other FBXW7 substrates after peptide treatment, Western blot; assay type: cell-based, human; details: FIG. 11, specificity for the FBXW7-DISC1 interaction
Method: Lysates were boiled in Laemmli buffer for 2 minutes prior to SDS-PAGE. Lysates were loaded on to a precast 4-12% bis-tris gel (˜10 μg/well). Gels were resolved at 150V (constant) for 90 mins. Proteins were transferred to nitrocellulose membrane at 30V for 1 hour. Membranes were blocked in 5% Milk in 1×TBS-tween20 for 1 hour at room temperature. Primary antibodies were diluted in 1% milk in 1×TBS-tween20 and incubated overnight at 4° C. Membranes were washed three times with 1×TBS-tween20 and the appropriate secondary antibody (diluted using 1% milk in 1×TBS-tween20) was added for 45 mins at room temperature. Membranes were washed a further three times with 1×TBS-tween20 and once in 1×TBS. Protein bands were visulised using the Licor Odyssey scanner and analysed using Odyssey software (version 1.2). DISC-1 protein levels were analysed by densitometry and normalised against those of the loading control (GAPDH).

FBXW7 = FBXW7 (Homo sapiens, UniProt Q969H0); experiment: Peptides immobilised on membranes screened for the ability to bind FBXW7; assay type: binding
Chain of FBXW7 (Q969H0 whole entry): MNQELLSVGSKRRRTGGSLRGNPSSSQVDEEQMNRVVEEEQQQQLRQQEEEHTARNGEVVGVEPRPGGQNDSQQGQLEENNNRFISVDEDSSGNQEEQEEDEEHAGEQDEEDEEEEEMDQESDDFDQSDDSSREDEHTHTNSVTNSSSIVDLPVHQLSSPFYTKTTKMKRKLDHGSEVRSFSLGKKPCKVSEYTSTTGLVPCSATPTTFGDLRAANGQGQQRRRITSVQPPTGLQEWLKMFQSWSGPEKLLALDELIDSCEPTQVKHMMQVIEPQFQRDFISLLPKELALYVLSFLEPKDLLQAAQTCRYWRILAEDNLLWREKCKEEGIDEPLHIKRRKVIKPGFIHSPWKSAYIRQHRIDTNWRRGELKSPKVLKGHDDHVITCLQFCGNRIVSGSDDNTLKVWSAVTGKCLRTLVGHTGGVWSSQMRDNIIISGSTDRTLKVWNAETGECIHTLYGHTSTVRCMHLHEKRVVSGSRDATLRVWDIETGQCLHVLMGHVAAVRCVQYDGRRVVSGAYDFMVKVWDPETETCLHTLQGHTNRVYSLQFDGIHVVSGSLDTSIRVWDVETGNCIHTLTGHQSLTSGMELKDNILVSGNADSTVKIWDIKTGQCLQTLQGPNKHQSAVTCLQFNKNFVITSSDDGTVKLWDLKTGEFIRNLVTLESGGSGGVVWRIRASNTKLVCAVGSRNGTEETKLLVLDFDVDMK
Description: Peptides derived from DISC1 and containing the putative phospho-degron motif were immobilised on membranes and screened for the ability to bind FBXW7. […] (SEQ ID NO: 114).
The 7-mer peptide P-pT-P-P-G-pS-H (SEQ ID NO: 21) was used as the basis for further investigation. L- and D-forms of aspartic acid and glutamic acid (upper and lower case letters respectively) as well as N-methylated versions of each (designated “m”) were incorporated at positions 198 and 202.

| Compound | DISC1 levels [1] | Kd (Skp1-FBXW7) [nM] | DISC1 up-regulation, time course [2] | effect on expression levels of the other FBXW7 substrates Notch-1, c-Myc, c-Jun and cyclinE [3] | binding to FBXW7 (FBXW7) | DISC1 up-regulation, dose dependence ([2]; cell-permeable peptides at 10 μM, 30 μM, 50 μM, 100 μM, 3 hours, FIG. 10) |
| --- | --- | --- | --- | --- | --- | --- |
| CC(C)C[C@@H](C=O)NC(=O)[C@H](CC(C)C)NC(=O)[C@H](CC(C)C)NC(=O)OCc1ccccc1 [MG132, N-carbobenzoxyl-Leu-Leu-Leucinal] (Cbz-Leu-Leu-Leu-aldehyde) | up-regulates DISC1 levels |  |  |  |  |  |
| CC(C)[C@H](N)C(=O)N1CCC[C@H]1C(=O)N1CCC[C@H]1C(=O)N[C@H](C(=O)N1CCC[C@H]1C(=O)N1CCC[C@H]1C(=O)NCC(=O)N[C@@H](COP(=O)(O)O)C(=O)N[C@@H](Cc1c[nH]cn1)C(=O)O)[C@@H](C)OP(=O)(O)O [VPPpTPPGpSH] (H-VPP[pT]PPG[pS]H-OH; N-terminus and C-terminus assumed) |  | ~1000 |  |  |  |  |
| G-mD-P-P-G-mE-H (G[NMeD]PPG[NMeE]H) [Peptide 142] |  |  | Up-Regulate DISC1 Expression | do not upregulate other FBXW7 substrates; also recorded: no effect | retain or have improved binding to FBXW7 |  |
| G-mE-P-P-G-mE-H (G[NMeE]PPG[NMeE]H) [Peptide 139] |  |  | Up-Regulate DISC1 Expression | do not upregulate other FBXW7 substrates; also recorded: no effect | retain or have improved binding to FBXW7 | dose-dependent |
